Data set [1] relates to Liver cytosol. Nature of the data set: Drug metabolism in human liver cytosol treated with 20 uM [14C]boceprevir assessed as IC50 for AKR inhibitor ibuprofen-mediated metabolite formation after 60 mins by LC-MS/MS/FSA method. The format is ADME, tissue-based. As to conditions: 1 h.
A further data set deals with T1, Cytochrome P450 4F3 (Homo sapiens, UniProt Q08477).
T1 sequence (Q08477 whole entry): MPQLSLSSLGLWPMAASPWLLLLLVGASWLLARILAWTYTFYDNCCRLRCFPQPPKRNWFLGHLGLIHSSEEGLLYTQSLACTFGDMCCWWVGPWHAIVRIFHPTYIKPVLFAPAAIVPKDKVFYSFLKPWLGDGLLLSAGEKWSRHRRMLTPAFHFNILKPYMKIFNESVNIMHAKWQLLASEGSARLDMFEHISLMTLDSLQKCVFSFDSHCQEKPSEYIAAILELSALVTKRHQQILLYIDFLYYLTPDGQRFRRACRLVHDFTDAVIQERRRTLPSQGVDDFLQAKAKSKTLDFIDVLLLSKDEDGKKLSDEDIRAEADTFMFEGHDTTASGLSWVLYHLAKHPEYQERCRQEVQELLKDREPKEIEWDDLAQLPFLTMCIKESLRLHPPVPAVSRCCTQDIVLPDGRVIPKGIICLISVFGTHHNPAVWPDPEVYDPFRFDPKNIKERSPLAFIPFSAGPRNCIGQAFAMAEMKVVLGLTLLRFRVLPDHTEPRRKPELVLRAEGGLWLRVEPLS
The data set is described as follows: Drug metabolism assessed as human CYP4F3A-mediated compound formation from 5 uM [14C]boceprevir after 120 mins by LC-MS/FSA method relative to total [14C]boceprevir. As to conditions: recombinant enzyme, 2 h. The format is ADME.

In another data set the target is T2, Cytochrome P450 2B6 (Homo sapiens, UniProt P20813).
T2 sequence (P20813 whole entry): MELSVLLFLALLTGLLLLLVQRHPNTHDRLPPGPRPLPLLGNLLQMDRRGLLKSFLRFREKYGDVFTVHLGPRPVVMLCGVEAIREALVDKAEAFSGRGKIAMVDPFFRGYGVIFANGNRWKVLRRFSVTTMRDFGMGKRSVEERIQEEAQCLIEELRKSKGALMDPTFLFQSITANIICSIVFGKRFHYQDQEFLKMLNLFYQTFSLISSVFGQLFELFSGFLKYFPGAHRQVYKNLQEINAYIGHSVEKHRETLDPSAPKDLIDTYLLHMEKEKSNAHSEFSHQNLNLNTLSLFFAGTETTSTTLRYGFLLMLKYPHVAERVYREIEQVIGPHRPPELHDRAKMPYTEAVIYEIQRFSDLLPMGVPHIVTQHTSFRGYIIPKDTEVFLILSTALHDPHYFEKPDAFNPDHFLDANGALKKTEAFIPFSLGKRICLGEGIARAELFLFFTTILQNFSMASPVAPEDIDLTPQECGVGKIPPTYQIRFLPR
Nature of the data set: Drug metabolism assessed as human CYP2B6-mediated compound formation from 5 uM [14C]boceprevir after 120 mins by LC-MS/FSA method relative to total [14C]boceprevir. As to conditions: recombinant enzyme, 2 h. The format is ADME.

The next data set deals with Liver microsome. The data set is described as follows: Drug metabolism in human liver microsomes treated with 20 uM [14C]boceprevir assessed as compound formation by LC-MS/FSA method relative to total [14C]boceprevir. It counts as ADME.
In another data set the test system is Plasma. The data set is described as follows: Drug metabolism in human plasma treated with [14C]boceprevir assessed as ratio of drug level by LC-MS/MS method relative to boceprevir. It counts as ADME, cell-free.
The next data set has as its target Cytochrome P450 3A4 (Homo sapiens, UniProt P08684). Nature of the data set: Drug metabolism assessed as human CYP3A4-mediated compound formation from 20 uM [14C]boceprevir after 120 mins by LC-MS/FSA method relative to total [14C]boceprevir. As to conditions: recombinant enzyme, 2 h. It counts as ADME.
A further data set has as its target Cytochrome P450 2C19 (Homo sapiens, UniProt P33261). The data set is described as follows: Drug metabolism assessed as human CYP2C19-mediated compound formation from 5 uM [14C]boceprevir after 120 mins by LC-MS/FSA method relative to total [14C]boceprevir. The format is ADME. Particulars: recombinant enzyme, 2 h.
The target in a further data set is T3, Cytochrome P450 1A1 (Homo sapiens, UniProt P04798).
T3 sequence (P04798 whole entry): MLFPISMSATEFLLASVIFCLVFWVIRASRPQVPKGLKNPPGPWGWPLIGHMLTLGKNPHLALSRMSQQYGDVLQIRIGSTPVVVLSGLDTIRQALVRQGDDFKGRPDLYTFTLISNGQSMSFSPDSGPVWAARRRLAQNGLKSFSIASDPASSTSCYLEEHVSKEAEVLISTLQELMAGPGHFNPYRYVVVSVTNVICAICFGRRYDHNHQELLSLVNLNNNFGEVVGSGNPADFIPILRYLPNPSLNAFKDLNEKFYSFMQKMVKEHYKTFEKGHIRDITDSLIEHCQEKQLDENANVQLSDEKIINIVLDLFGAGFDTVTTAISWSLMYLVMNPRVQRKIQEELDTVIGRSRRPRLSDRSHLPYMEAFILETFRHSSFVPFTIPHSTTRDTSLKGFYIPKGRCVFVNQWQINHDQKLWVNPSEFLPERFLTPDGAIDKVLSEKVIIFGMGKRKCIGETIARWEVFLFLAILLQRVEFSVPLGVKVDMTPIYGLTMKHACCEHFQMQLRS
The data set is described as follows: (§1) Drug metabolism assessed as human […]-mediated compound formation from 5 uM [14C]boceprevir after 120 mins by LC-MS/FSA method relative to total [14C]boceprevir. The format is ADME. As to conditions: recombinant enzyme, 2 h.

In the next data set the target is T4, Cytochrome P450 1A2 (Homo sapiens, UniProt P05177).
T4 sequence (P05177 whole entry): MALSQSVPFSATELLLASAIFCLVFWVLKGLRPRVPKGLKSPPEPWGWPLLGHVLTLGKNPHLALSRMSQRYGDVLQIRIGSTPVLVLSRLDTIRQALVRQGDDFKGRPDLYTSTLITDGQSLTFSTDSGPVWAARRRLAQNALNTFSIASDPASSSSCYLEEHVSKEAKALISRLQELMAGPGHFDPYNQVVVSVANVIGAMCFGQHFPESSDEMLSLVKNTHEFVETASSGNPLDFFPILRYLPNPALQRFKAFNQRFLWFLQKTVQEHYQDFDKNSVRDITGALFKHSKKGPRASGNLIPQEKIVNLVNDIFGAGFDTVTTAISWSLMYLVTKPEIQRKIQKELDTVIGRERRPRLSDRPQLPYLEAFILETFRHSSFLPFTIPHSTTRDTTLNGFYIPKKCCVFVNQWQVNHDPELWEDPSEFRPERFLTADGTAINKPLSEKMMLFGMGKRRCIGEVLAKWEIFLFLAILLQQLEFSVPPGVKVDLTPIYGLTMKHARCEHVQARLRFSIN
Described as §1. It counts as ADME. Particulars: recombinant enzyme, 2 h.

Another data set has as its target Cytochrome P450 2D6 (Homo sapiens, UniProt P10635). Nature of the data set: Drug metabolism assessed as human CYP2D6-mediated compound formation from 5 uM [14C]boceprevir after 120 mins by LC-MS/FSA method relative to total [14C]boceprevir. It counts as ADME. As to conditions: recombinant enzyme, 2 h.
The subject of data set [2] is Liver cytosol. The data set is described as follows: Drug metabolism in human liver cytosol at 20 uM assessed as (1R,2S,5S)-N-((2R,3R)-4-amino-1-cyclobutyl-3-hydroxy-4-oxobutan-2-yl)-3-((S)-2-(3-tert-butylureido)-3,3-dimethylbutanoyl)-6,6-dimethyl-3-azabicyclo[3.1.0]hexane-2-carboxamide formation in presence of BNPP by LC-MS/MS/FSA method. It counts as ADME.

Chain of Cytochrome P450 3A4 (P08684 whole entry): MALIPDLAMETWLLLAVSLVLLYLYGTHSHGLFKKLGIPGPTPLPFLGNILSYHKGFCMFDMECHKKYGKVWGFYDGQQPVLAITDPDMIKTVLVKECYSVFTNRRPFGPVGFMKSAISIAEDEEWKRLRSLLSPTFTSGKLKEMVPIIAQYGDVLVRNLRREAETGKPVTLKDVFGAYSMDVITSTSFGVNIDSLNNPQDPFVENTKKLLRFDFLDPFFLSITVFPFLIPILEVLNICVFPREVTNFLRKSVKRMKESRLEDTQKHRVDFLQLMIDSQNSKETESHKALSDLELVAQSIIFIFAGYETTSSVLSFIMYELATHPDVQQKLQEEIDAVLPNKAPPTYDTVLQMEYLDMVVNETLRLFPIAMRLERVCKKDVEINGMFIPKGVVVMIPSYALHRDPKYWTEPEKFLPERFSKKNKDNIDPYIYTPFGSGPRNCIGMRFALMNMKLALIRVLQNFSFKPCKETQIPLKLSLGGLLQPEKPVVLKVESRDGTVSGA
Chain of Cytochrome P450 2C19 (P33261 whole entry): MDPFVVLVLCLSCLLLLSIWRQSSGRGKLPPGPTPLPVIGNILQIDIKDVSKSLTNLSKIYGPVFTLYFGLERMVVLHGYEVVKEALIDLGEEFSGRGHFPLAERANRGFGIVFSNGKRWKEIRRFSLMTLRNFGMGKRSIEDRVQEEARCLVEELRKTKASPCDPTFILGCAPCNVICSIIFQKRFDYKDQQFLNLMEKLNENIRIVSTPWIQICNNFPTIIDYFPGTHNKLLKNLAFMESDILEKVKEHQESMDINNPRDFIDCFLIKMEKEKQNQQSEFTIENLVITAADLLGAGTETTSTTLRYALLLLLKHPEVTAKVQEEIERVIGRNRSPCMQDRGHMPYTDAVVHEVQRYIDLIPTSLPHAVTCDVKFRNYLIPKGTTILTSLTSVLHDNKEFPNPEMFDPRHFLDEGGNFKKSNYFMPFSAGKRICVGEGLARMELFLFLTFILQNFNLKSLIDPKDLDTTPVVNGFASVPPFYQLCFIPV
Chain of Cytochrome P450 2D6 (P10635 whole entry): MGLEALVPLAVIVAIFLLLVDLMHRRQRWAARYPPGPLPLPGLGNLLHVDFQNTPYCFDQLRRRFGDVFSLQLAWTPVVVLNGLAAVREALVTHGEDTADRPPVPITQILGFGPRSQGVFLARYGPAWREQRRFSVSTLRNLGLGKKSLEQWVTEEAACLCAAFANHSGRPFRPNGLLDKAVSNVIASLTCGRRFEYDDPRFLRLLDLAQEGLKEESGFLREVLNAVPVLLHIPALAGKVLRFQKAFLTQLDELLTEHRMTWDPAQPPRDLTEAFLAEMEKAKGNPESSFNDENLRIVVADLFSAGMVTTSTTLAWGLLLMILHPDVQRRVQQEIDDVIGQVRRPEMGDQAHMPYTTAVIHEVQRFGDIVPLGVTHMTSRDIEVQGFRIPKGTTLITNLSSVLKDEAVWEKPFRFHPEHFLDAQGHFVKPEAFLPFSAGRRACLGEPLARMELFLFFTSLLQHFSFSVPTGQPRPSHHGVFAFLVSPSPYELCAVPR

As to `CC(C)(C)NC(=O)N[C@H](C(=O)N1C[C@H]2[C@@H]([C@H]1C(=O)N[C@@H](CC1CCC1)[C@@H](O)C(N)=O)C2(C)C)C(C)(C)C`, the 50% inhibitory concentration (IC50) with Liver cytosol [1] was 412 µM. The Compound recovery on Cytochrome P450 4F3 is reported as 1.78%; at Cytochrome P450 2B6, 0.9%; with Liver microsome, 0.6%; in the data set with Plasma, “>= 50%”; on Cytochrome P450 3A4 (BLD = below limit of detection) it was “BLD”; on Cytochrome P450 2C19, 0.38%. Further, the Compound recovery at Cytochrome P450 1A1 is 0.57%; on Cytochrome P450 1A2, 0.34%; at Cytochrome P450 2D6, 0.56%.
On to `CC(C)(C)NC(=O)N[C@H](C(=O)N1C[C@H]2[C@@H]([C@H]1C(=O)N[C@H](CC1CCC1)C(=O)C(N)=O)C2(C)C)C(C)(C)C`, for which the Compound recovery is listed as 34.35% at Cytochrome P450 4F3; 33.77% on Cytochrome P450 2B6; 17.42% in the data set on Liver microsome; “>= 50%” in the data set with Plasma; 18.98% at Cytochrome P450 3A4; 30.71% at Cytochrome P450 2C19. In addition, the Compound recovery result in the data set with Liver cytosol [2] was “metabolite_not_detected”; at Cytochrome P450 1A1 it was 33.4%; on Cytochrome P450 1A2 it was 31.72%; on Cytochrome P450 2D6 it was 31.66%.
`CC(C)(C)NC(=O)N[C@H](C(=O)N1C[C@H]2[C@@H]([C@H]1C(=O)NC(CC1CCC1)C(=O)C(N)=O)C2(C)C)C(C)(C)C` (some centres not stated) [BOCEPREVIR]: the half-maximal inhibitory concentration (IC50) in the data set on Liver cytosol [1] came to 412 µM. In the data set with Liver cytosol [2], the Compound recovery result is “metabolite_not_detected”.

For the origin of these results see ChEMBL document CHEMBL3526141, “Characterization of human liver enzymes involved in the biotransformation of boceprevir, a hepatitis C virus protease inhibitor” (Drug Metab Dispos, 2011).
